The structures appear in SMILES notation. Read-outs that look alike come from different tables or passages of the source.

The target of one assay is Mcl-1 protein (UniProtKB primary accession number: Q07820) (Homo sapiens, UniProt Q07820). Briefly: Inhibition of Mcl-1 by fluorescence polarisation, Method 1. Type of assay: binding. The note with it: fluorescence polarisation test; Method 2 values are underlined in the patent (underlining not visible here); read-out: IC50 (M) Mcl-1 FP. Summed up: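 Compounds were tested as 11-point serial dilutions at 5% final DMSO against 5 nM Mcl-1 with 1 nM fluorescein-labelled ligand in 10 mM HEPES, 150 mM NaCl, 0.05% Tween 20, pH 7.4. Relative binding potency was read by fluorescence polarisation.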
For orientation: In fluorescence polarisation assays a small probe gives low polarisation when free and higher when bound to something large.

The test system of assay [1] is H929 multiple myeloma tumour line. Briefly: In vitro cytotoxicity, Microculture Tetrazolium Assay. The assay is classed as cell-based. The note with it: H929 cells, 48 hours exposure, MTT, read-out: IC50 (μM) MTT H929. As for the experimental part:
The cytotoxicity studies were carried out on the H929 multiple myeloma tumour line.
The cells are distributed onto microplates and exposed to the test compounds for 48 hours.

Mcl-1 protein, sequence (Q07820 whole entry): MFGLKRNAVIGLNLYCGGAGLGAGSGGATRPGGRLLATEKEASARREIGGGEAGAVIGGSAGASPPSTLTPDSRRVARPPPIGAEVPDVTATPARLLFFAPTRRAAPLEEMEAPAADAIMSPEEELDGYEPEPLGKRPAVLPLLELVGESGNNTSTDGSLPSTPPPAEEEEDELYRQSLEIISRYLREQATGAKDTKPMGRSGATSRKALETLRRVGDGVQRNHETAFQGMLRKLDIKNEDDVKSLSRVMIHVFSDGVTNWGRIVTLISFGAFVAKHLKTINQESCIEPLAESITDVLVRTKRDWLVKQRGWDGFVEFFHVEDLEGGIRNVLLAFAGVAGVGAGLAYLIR

In general, IC50 refers to the midpoint of a concentration-inhibition curve. Take `COc1cccc(COc2ccccc2CC(Oc2ncnc3sc(-c4ccco4)c(-c4ccc(OCCN5CCN(C)CC5)c(Cl)c4C)c23)C(=O)O)n1` [Example 238, (2R)-2-{[(5Sa)-5-{3-chloro-2-methyl-4-[2-(4-methylpiperazin-1-yl)ethoxy]phenyl}-6-(furan-2-yl)thieno[2,3-d]pyrimidin-4-yl]oxy}-3-{2-[(6-methoxypyridin-2-yl)methoxy]phenyl}propanoic acid]: the IC50 amounted to 5.9e-09 M on Mcl-1 protein and 0.077 µM in assay [1] (Homo sapiens, NCI-H929, 48 h).

Turning to `Cc1c(-c2c(-c3ccco3)sc3ncnc(OC(Cc4ccccc4OCC4CCCC4)C(=O)O)c23)ccc(OCCN2CCN(C)CC2)c1Cl` [Example 239, (2R)-2-{[(5Sa)-5-{3-chloro-2-methyl-4-[2-(4-methylpiperazin-1-yl)ethoxy]phenyl}-6-(furan-2-yl)thieno[2,3-d]pyrimidin-4-yl]oxy}-3-[2-(cyclopentylmethoxy)phenyl]propanoic acid], the IC50 on Mcl-1 protein is 1.1e-08 M; in assay [1] (Homo sapiens, NCI-H929, 48 h) it was 0.55 µM.

As for `Cc1c(-c2c(-c3ccco3)sc3ncnc(OC(Cc4ccccc4OCc4ccccc4)C(=O)O)c23)ccc(OCCN2CCN(C)CC2)c1Cl` [Example 240, (2R)-3-[2-(benzyloxy)phenyl]-2-{[(5Sa)-5-{3-chloro-2-methyl-4-[2-(4-methylpiperazin-1-yl)ethoxy]phenyl}-6-(furan-2-yl)thieno[2,3-d]pyrimidin-4-yl]oxy}propanoic acid], the IC50 on Mcl-1 protein was found to be 7.2e-09 M; in assay [1] (Homo sapiens, NCI-H929, 48 h), 0.225 µM.

`Cc1c(-c2c(-c3ccco3)sc3ncnc(OC(Cc4ccccc4OCc4ccccn4)C(=O)O)c23)ccc(OCCN2CCN(C)CC2)c1Cl` [Example 241, (2R)-2-{[(5Sa)-5-{3-chloro-2-methyl-4-[2-(4-methylpiperazin-1-yl)ethoxy]phenyl}-6-(furan-2-yl)thieno[2,3-d]pyrimidin-4-yl]oxy}-3-[2-(pyridin-2-ylmethoxy)phenyl]propanoic acid]: the concentration for half-maximal inhibition (IC50) turned out to be 5.5e-09 M on Mcl-1 protein and 0.074 µM in assay [1] (Homo sapiens, NCI-H929, 48 h).

As for `Cc1c(-c2c(-c3ccco3)sc3ncnc(OC(Cc4ccccc4OCc4cccnc4)C(=O)O)c23)ccc(OCCN2CCN(C)CC2)c1Cl` [Example 242, (2R)-2-{[(5Sa)-5-{3-chloro-2-methyl-4-[2-(4-methylpiperazin-1-yl)ethoxy]phenyl}-6-(furan-2-yl)thieno[2,3-d]pyrimidin-4-yl]oxy}-3-[2-(pyridin-3-ylmethoxy)phenyl]propanoic acid], the IC50 was 7.3e-09 M on Mcl-1 protein and 0.09 µM in assay [1] (Homo sapiens, NCI-H929, 48 h).

On to `Cc1c(-c2c(-c3ccco3)sc3ncnc(OC(Cc4ccccc4OCc4cccnn4)C(=O)O)c23)ccc(OCCN2CCN(C)CC2)c1Cl` [Example 243, (2R)-2-{[(5Sa)-5-{3-chloro-2-methyl-4-[2-(4-methylpiperazin-1-yl)ethoxy]phenyl}-6-(furan-2-yl)thieno[2,3-d]pyrimidin-4-yl]oxy}-3-[2-(pyridazin-3-ylmethoxy)phenyl]propanoic acid], for which the IC50 turned out to be 5.6e-09 M on Mcl-1 protein and 0.211 µM in assay [1] (Homo sapiens, NCI-H929, 48 h).

As to `Cc1c(-c2c(-c3ccco3)sc3ncnc(O[C@H](Cc4ccccc4OCc4ccco4)C(=O)O)c23)ccc(OCCN2CCN(C)CC2)c1Cl` [Example 244, (2R)-2-{[(5Sa)-5-{3-chloro-2-methyl-4-[2-(4-methylpiperazin-1-yl)ethoxy]phenyl}-6-(furan-2-yl)thieno[2,3-d]pyrimidin-4-yl]oxy}-3-[2-(furan-2-ylmethoxy)phenyl]propanoic acid], the concentration for half-maximal inhibition (IC50) at Mcl-1 protein came out at 8.6e-09 M; in assay [1], 0.205 µM.

As to `Cc1c(-c2c(-c3ccco3)sc3ncnc(OC(Cc4ccccc4OCc4cccs4)C(=O)O)c23)ccc(OCCN2CCN(C)CC2)c1Cl` [Example 245, (2R)-2-{[(5Sa)-5-{3-chloro-2-methyl-4-[2-(4-methylpiperazin-1-yl)ethoxy]phenyl}-6-(furan-2-yl)thieno[2,3-d]pyrimidin-4-yl]oxy}-3-[2-(thiophen-2-ylmethoxy)phenyl]propanoic acid], the half-inhibitory concentration (IC50) was 5.8e-09 M at Mcl-1 protein and 0.099 µM in assay [1] (Homo sapiens, NCI-H929, 48 h).

Take `Cc1c(-c2c(-c3ccco3)sc3ncnc(OC(Cc4ccccc4OCc4ccn(C)n4)C(=O)O)c23)ccc(OCCN2CCN(C)CC2)c1Cl` [Example 246, (2R)-2-{[(5Sa)-5-{3-chloro-2-methyl-4-[2-(4-methylpiperazin-1-yl)ethoxy]phenyl}-6-(furan-2-yl)thieno[2,3-d]pyrimidin-4-yl]oxy}-3-{2-[(1-methyl-1H-pyrazol-3-yl)methoxy]phenyl}propanoic acid]: the IC50 at Mcl-1 protein came out at 9.1e-09 M; in assay [1] (Homo sapiens, NCI-H929, 48 h) it was 0.324 µM.

On to `Cc1nccc(COc2ccccc2CC(Oc2ncnc3sc(-c4ccco4)c(-c4ccc(OCCN5CCN(C)CC5)c(Cl)c4C)c23)C(=O)O)n1` [Example 247, (2R)-2-{[(5Sa)-5-{3-chloro-2-methyl-4-[2-(4-methylpiperazin-1-yl)ethoxy]phenyl}-6-(furan-2-yl)thieno[2,3-d]pyrimidin-4-yl]oxy}-3-{2-[(2-methylpyrimidin-4-yl)methoxy]phenyl}propanoic acid], for which the IC50 was 8e-09 M at Mcl-1 protein and 0.022 µM in assay [1] (Homo sapiens, NCI-H929, 48 h).

For `Cc1c(-c2c(-c3ccco3)sc3ncnc(OC(Cc4ccccc4OCc4ccnc(C(F)(F)F)n4)C(=O)O)c23)ccc(OCCN2CCN(C)CC2)c1Cl` [Example 248, (2R)-2-{[(5Sa)-5-{3-chloro-2-methyl-4-[2-(4-methylpiperazin-1-yl)ethoxy]phenyl}-6-(furan-2-yl)thieno[2,3-d]pyrimidin-4-yl]oxy}-3-(2-{[2-(trifluoromethyl)pyrimidin-4-yl]methoxy}phenyl)propanoic acid], the IC50 was 6.9e-09 M at Mcl-1 protein and 0.015 µM in assay [1] (Homo sapiens, NCI-H929, 48 h).

Regarding `Cc1c(-c2c(-c3ccco3)sc3ncnc(OC(Cc4ccccc4OCc4ccnc(Cl)n4)C(=O)O)c23)ccc(OCCN2CCN(C)CC2)c1Cl` [Example 249, (2R)-2-{[(5Sa)-5-{3-chloro-2-methyl-4-[2-(4-methylpiperazin-1-yl)ethoxy]phenyl}-6-(furan-2-yl)thieno[2,3-d]pyrimidin-4-yl]oxy}-3-{2-[(2-chloropyrimidin-4-yl)methoxy]phenyl}propanoic acid], the half-maximal inhibitory concentration (IC50) was found to be 4e-09 M on Mcl-1 protein and 0.023 µM in assay [1] (Homo sapiens, NCI-H929, 48 h).

Regarding `Cc1c(-c2c(-c3ccco3)sc3ncnc(O[C@H](Cc4ccccc4OCc4ccnc(N)n4)C(=O)O)c23)ccc(OCCN2CCN(C)CC2)c1Cl` [Example 250, (2R)-3-{2-[(2-aminopyrimidin-4-yl)methoxy]phenyl}-2-{[(5Sa)-5-{3-chloro-2-methyl-4-[2-(4-methylpiperazin-1-yl)ethoxy]phenyl}-6-(furan-2-yl)thieno[2,3-d]pyrimidin-4-yl]oxy}propanoic acid], the IC50 at Mcl-1 protein was found to be 3.6e-09 M; in assay [1] it was 0.499 µM.

In the case of `Cc1c(-c2c(-c3ccco3)sc3ncnc(OC(Cc4ccccc4OCc4ccnc(N(C)C)n4)C(=O)O)c23)ccc(OCCN2CCN(C)CC2)c1Cl` [Example 251, (2R)-2-{[(5Sa)-5-{3-chloro-2-methyl-4-[2-(4-methylpiperazin-1-yl)ethoxy]phenyl}-6-(furan-2-yl)thieno[2,3-d]pyrimidin-4-yl]oxy}-3-(2-{[2-(dimethylamino)pyrimidin-4-yl]methoxy}phenyl)propanoic acid], the IC50 on Mcl-1 protein is 6.3e-09 M; in assay [1] (Homo sapiens, NCI-H929, 48 h), 0.035 µM.

Regarding `Cc1c(-c2c(-c3ccco3)sc3ncnc(OC(Cc4ccccc4OCc4ccnc(N5CCOCC5)n4)C(=O)O)c23)ccc(OCCN2CCN(C)CC2)c1Cl` [Example 252, (2R)-2-{[(5Sa)-5-{3-chloro-2-methyl-4-[2-(4-methylpiperazin-1-yl)ethoxy]phenyl}-6-(furan-2-yl)thieno[2,3-d]pyrimidin-4-yl]oxy}-3-(2-{[2-(morpholin-4-yl)pyrimidin-4-yl]methoxy}phenyl)propanoic acid], the IC50 on Mcl-1 protein is 4.2e-09 M; in assay [1] (Homo sapiens, NCI-H929, 48 h), 0.009 µM.

As for `CNc1nccc(COc2ccccc2CC(Oc2ncnc3sc(-c4ccco4)c(-c4ccc(OCCN5CCN(C)CC5)c(Cl)c4C)c23)C(=O)O)n1` [Example 253, (2R)-2-{[(5Sa)-5-{3-chloro-2-methyl-4-[2-(4-methylpiperazin-1-yl)ethoxy]phenyl}-6-(furan-2-yl)thieno[2,3-d]pyrimidin-4-yl]oxy}-3-(2-{[2-(methylamino)pyrimidin-4-yl]methoxy}phenyl)propanoic acid], the IC50 amounted to 3.1e-09 M on Mcl-1 protein and 0.041 µM in assay [1] (Homo sapiens, NCI-H929, 48 h).

Regarding `Cc1c(-c2c(-c3ccco3)sc3ncnc(OC(Cc4ccccc4OCc4ccnc(NCc5ccccc5)n4)C(=O)O)c23)ccc(OCCN2CCN(C)CC2)c1Cl` [Example 254, (2R)-3-(2-{[2-(benzylamino)pyrimidin-4-yl]methoxy}phenyl)-2-{[(5Sa)-5-{3-chloro-2-methyl-4-[2-(4-methylpiperazin-1-yl)ethoxy]phenyl}-6-(furan-2-yl)thieno[2,3-d]pyrimidin-4-yl]oxy}propanoic acid], the IC50 turned out to be 3.3e-09 M on Mcl-1 protein and 0.044 µM in assay [1] (Homo sapiens, NCI-H929, 48 h).

With `COc1nccc(COc2ccccc2CC(Oc2ncnc3sc(-c4ccco4)c(-c4ccc(OCCN5CCN(C)CC5)c(Cl)c4C)c23)C(=O)O)n1` [Example 255, (2R)-2-{[(5Sa)-5-{3-chloro-2-methyl-4-[2-(4-methylpiperazin-1-yl)ethoxy]phenyl}-6-(furan-2-yl)thieno[2,3-d]pyrimidin-4-yl]oxy}-3-{2-[(2-methoxypyrimidin-4-yl)methoxy]phenyl}propanoic acid], the 50% inhibitory concentration (IC50) at Mcl-1 protein amounted to 7.5e-09 M; in assay [1] (Homo sapiens, NCI-H929, 48 h), 0.018 µM.

As to `Cc1c(-c2c(-c3ccco3)sc3ncnc(OC(Cc4ccccc4OCc4ccnc(OCc5ccccc5)n4)C(=O)O)c23)ccc(OCCN2CCN(C)CC2)c1Cl` [Example 257, (2R)-3-(2-{[2-(benzyloxy)pyrimidin-4-yl]methoxy}phenyl)-2-{[(5Sa)-5-{3-chloro-2-methyl-4-[2-(4-methylpiperazin-1-yl)ethoxy]phenyl}-6-(furan-2-yl)thieno[2,3-d]pyrimidin-4-yl]oxy}propanoic acid], the IC50 stood at 5e-09 M on Mcl-1 protein and 0.019 µM in assay [1] (Homo sapiens, NCI-H929, 48 h).

Source of the values: patent publication US9670227B2, “Thienopyrimidine derivatives, a process for their preparation and pharmaceutical compositions containing them” (LES LABORATOIRES SERVIER, priority 2013, dated 2017).
